Article PMC8541353, “A Novel Phenylpyrrolidine Derivative: Synthesis and Effect on Cognitive Functions in Rats with Experimental Ishemic Stroke” (Molecules, 2021)

Legend:
[1] = test system: rats with MCAO; experiment: Hole-board test (HBT) after MCAO; type: in vivo, Wistar rats
Protocol: (§1) A MCAO animal model was used to characterize the effects of compound 1 on the development and resolution of stroke. At the baseline, we performed the MRI and hole-board test before MCAO surgery. Once animals recovered after the surgery, we stratified them based on their background psycho-emotional status and performed a control MRI to access whether the occlusion was sufficient or not. […] From 24 h to day 7, the neurological status was assessed daily according to the neurological scale (mNSS). By the end of day 7, animals underwent MRI. In addition, MRI was performed on days 14 and 28 (Shceme 3)The hole-board test was repeated on days 10 and 24. The degree of motor function impairment, the deficit of exploratory behavior, and the recovery process were assessed in the beam walking test (BWT), which was performed twice on days 12 and 14. An open field test was carried out on days 16 and 26.
(§2) In the first experimental series, the following test systems were used: HBT (OpenScience, Russia), OFT (OpenScience), and LDT (OpenScience). The design for the second experimental series was as follows. All rat behavioral changes were evaluated during the four weeks after stroke simulation. […] General neurological disorders were assessed using the modified neurological severity score (mNSS). Motor and cognitive impairment were evaluated using the following functional tests: BWT (OpenScience), HBT (OpenScience), and OFT (OpenScience). […] In this test, motor dysfunction in all four limbs was evaluated; specifically, the number of steps, errors, and slides were counted. The overall score was calculated using the following formula: score = errors + 0.5 × slides × 100/total number of steps [47]. […]
(§3) The HBT was performed on postoperative days 10 and 24. In this test, the following parameters were assessed: orientational and motor activity (horizontal activity, arbitrary units: number of crossings; vertical activity, arbitrary units: number of head dips), anxiety level (immobility and grooming time and number of grooming and immobility events), and the number of central sector crossings. […]

[2] = test system: rats with MCAO; experiment: Open field test (OFT) after MCAO; type: in vivo, Wistar rats
Protocol: as §1, §2, §3

[3] = cited from earlier work

Structure (SMILES)	Orientational activity (HBT) ([1]; day 10)	Freezing time (HBT) ([1]; days 10 and 24)	Total locomotor activity (HBT) ([1]; days 10 and 24)	Locomotor activity (OFT) [2]	Immobility time (OFT) compared to the saline and piracetam groups ([2]; day 16)	Number of crossed areas (OFT) ([2]; day 16)	Increase of BBB permeability in animals with ischemic stroke ([3]; animals with ischemic stroke, ref 25 (Paliwal et al. 2018)) [fold]	Literature Report of BBB Permeability [3]
O=C(CN1CC(c2ccccc2)CC1=O)NCCS(=O)(=O)[O-].[K+] (centres unmarked) [Compound 1, potassium 2-[2-(2-oxo-4-phenylpyrrolidin-1-yl)acetamido]ethane-1-sulfonate]	escalation	decreased	significantly increased	higher	lower	statistically significant increase	–	–
NC(=O)CN1CCCC1=O [Piracetam, reference compound]	–	–	–	–	–	–	3.5	Very good [21, 22]
